Data taken from US7468369B2, “Sulfonyl pyrrolidines, method for producing the same and their use as drugs” (Sanofi-Aventis, priority 2005, dated 2008).
Where a name gives a salt, the structure may show the parent alone.

test system: human ABCA1 promoter; experiment: ABCA1 promoter test (luciferase reporter in stably transfected THP1 cell line); type: cell-based; settings: ABCA1 reporter cell line (THP1, PMA-differentiated), 24 h incubation, luciferase chemiluminescence; read-out: E50 ABCA1
Summary of the method: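 PMA-differentiated THP1 macrophages stably carrying a 3.2 kb human ABCA1 promoter-luciferase construct, treated 24 h at 37° C with 11 concentrations ([…] to 330 pM, DMSO <0.1%). Luciferase read by luminescence after lysis; EC50 from dose-response plots.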

Work on `COc1cccc(S(=O)(=O)N2CC(C(=O)N3CCN(c4cc(C)ccc4C)CC3)C(c3ccsc3)C2)c1` (stereo not drawn) [Example 110, [4-(2,5-Dimethylphenyl)piperazin-1-yl]-[1-(3-methoxybenzenesulfonyl)-3,4-trans-4-thiophen-3-ylpyrrolidin-3-yl]methanone trifluoroacetate] yielded an EC50 of 914 nM.

same assay, conditions: Homo sapiens, THP-1; ABCA1 reporter cell line (THP1, PMA-differentiated), 24 h incubation, luciferase chemiluminescence; read-out: E50 ABCA1

Point of comparison: `Cc1ccc(C)c(N2CCN(C(=O)[C@@H]3CN(S(=O)(=O)c4c(C)noc4C)C[C@H]3c3cccc4c3OCO4)CC2)c1` [Example 108, [3,4-trans-4-Benzo[1,3]dioxol-4-yl-1-(3,5-dimethylisoxazole-4-sulfonyl)-pyrrolidin-3-yl]-[4-(2,5-dimethylphenyl)piperazin-1-yl]methanone trifluoroacetate], EC50 585 nM. Against it:
- COc1cccc(S(=O)(=O)N2C[C@@H](C)[C@H](C(=O)N3CCN(c4cc(C)ccc4C)CC3)C2)c1 [Example 91, [3,4-trans-4-(2,5-Dimethylphenyl)piperazin-1-yl]-[1-(3-methoxybenzene-sulfonyl)-4-methylpyrrolidin-3-yl]methanone trifluoroacetate] — 4-fold higher, 2340 nM
- Cc1ccc(C)c(N2CCN(C(=O)[C@@H]3CN(S(=O)(=O)c4c(C)noc4C)C[C@H]3Cc3ccccc3)CC2)c1 [Example 93, [3,4-trans-4-Benzyl-1-(3,5-dimethylisoxazole-4-sulfonyl)pyrrolidin-3-yl]-[4-(2,5-dimethylphenyl)piperazin-1-yl]methanone trifluoroacetate] — 4.2-fold higher, 2480 nM
- COc1cccc(S(=O)(=O)N2C[C@@H](Cc3ccccc3)[C@H](C(=O)N3CCN(c4cc(C)ccc4C)CC3)C2)c1 [Example 94, [3,4-trans-4-Benzyl-1-(3-methoxybenzenesulfonyl)pyrrolidin-3-yl]-[4-(2,5-dimethylphenyl)piperazin-1-yl]methanone trifluoroacetate] — 5-fold higher, 2930 nM
- Cc1ccc(C)c(N2CCN(C(=O)[C@@H]3CN(S(=O)(=O)c4c(C)noc4C)C[C@H]3C(C)C)CC2)c1 [Example 95, [1-(3,5-Dimethyl isoxazole-4-sulfonyl)-3,4-trans-4-isopropylpyrrolidin-3-yl]-[4-(2,5-dimethylphenyl)piperazin-1-yl]methanone trifluoroacetate] — 7.8-fold higher, 4590 nM
- COc1cccc(S(=O)(=O)N2C[C@@H](C(=O)N3CCN(c4cc(C)ccc4C)CC3)[C@H](C(C)C)C2)c1 [Example 96, [4-(2,5-Dimethylphenyl)piperazin-1-yl]-[3,4-trans-4-isopropyl-1-(3-methoxy-benzenesulfonyl)pyrrolidin-3-yl]methanone trifluoroacetate] — 6.2-fold higher, 3600 nM
- Cc1ccc(C)c(N2CCN(C(=O)[C@@H]3CN(S(=O)(=O)c4c(C)noc4C)C[C@H]3c3ccccc3C)CC2)c1 [Example 98, [1-(3,5-Dimethylisoxazole-4-sulfonyl)-3,4-trans-4-o-tolylpyrrolidin-3-yl]-[4-(2,5-dimethylphenyl)piperazin-1-yl]methanone trifluoroacetate] — within 1.5-fold, 401 nM
- COc1cccc(S(=O)(=O)N2C[C@@H](C(=O)N3CCN(c4cc(C)ccc4C)CC3)[C@H](c3ccccc3C)C2)c1 [Example 99, [4-(2,5-Dimethylphenyl)piperazin-1-yl]-[1-(3-methoxybenzenesulfonyl)-3,4-trans-4-o-tolylpyrrolidin-3-yl]methanone trifluoroacetate] — within 1.5-fold, 707 nM
- Cc1ccc(C)c(N2CCN(C(=O)[C@@H]3CN(S(=O)(=O)c4cccnc4)C[C@H]3c3ccccc3C)CC2)c1 [Example 100, [4-(2,5-Dimethylphenyl)piperazin-1-yl]-[1-(pyridine-3-sulfonyl)-3,4-trans-4-o-tolylpyrrolidin-3-yl]methanone trifluoroacetate] — 2.3-fold higher, 1350 nM
- Cc1cccc([C@@H]2CN(S(=O)(=O)c3c(C)noc3C)C[C@H]2C(=O)N2CCN(c3cc(C)ccc3C)CC2)c1 [Example 101, [1-(3,5-Dimethylisoxazole-4-sulfonyl)-3,4-trans-4-m-tolylpyrrolidin-3-yl]-[4-(2,5-dimethylphenyl)piperazin-1-yl]methanone trifluoroacetate] — 3.2-fold higher, 1850 nM
- COc1cccc(S(=O)(=O)N2C[C@@H](C(=O)N3CCN(c4cc(C)ccc4C)CC3)[C@H](c3cccc(C)c3)C2)c1 [Example 102, [4-(2,5-Dimethylphenyl)piperazin-1-yl]-[1-(3-methoxybenzenesulfonyl)-3,4-trans-4-m-tolylpyrrolidin-3-yl]methanone trifluoroacetate] — 1.8-fold higher, 1050 nM
- COc1cccc(S(=O)(=O)N2C[C@@H](C(=O)N3CCN(c4cc(C)ccc4C)CC3)[C@H](c3c(C)noc3C)C2)c1 [Example 104, [3,4-trans-4-(3,5-Dimethylisoxazol-4-yl)-1-(3-methoxybenzenesulfonyl)-pyrrolidin-3-yl]-[4-(2,5-dimethylphenyl)piperazin-1-yl]methanone trifluoroacetate] — 11-fold higher, 6270 nM
- Cc1ccc(C)c(N2CCN(C(=O)[C@@H]3CN(S(=O)(=O)c4c(C)noc4C)C[C@H]3c3c(C)cccc3C)CC2)c1 [Example 106, [1-(3,5-Dimethylisoxazole-4-sulfonyl)-3,4-trans-4-(2,6-dimethylphenyl)pyrrolidin-3-yl]-[4-(2,5-dimethylphenyl)piperazin-1-yl]methanone trifluoroacetate] — 1.6-fold lower, 372 nM
- Cc1ccc(C)c(N2CCN(C(=O)[C@@H]3CN(S(=O)(=O)c4c(C)noc4C)C[C@H]3c3ccsc3)CC2)c1 [Example 111, [1-(3,5-Dimethylisoxazole-4-sulfonyl)-3,4-trans-4-thiophen-3-ylpyrrolidin-3-yl]-[4-(2,5-dimethylphenyl)piperazin-1-yl]methanone trifluoroacetate] — within 1.5-fold, 867 nM
- Cc1ccc(C)c(N2CCN(C(=O)[C@@H]3CN(S(=O)(=O)c4c(C)noc4C)C[C@H]3c3cccnc3)CC2)c1 [Example 112, [1-(3,5-Dimethylisoxazole-4-sulfonyl)-3,4-trans-4-pyridin-3-ylpyrrolidin-3-yl]-[4-(2,5-dimethylphenyl)piperazin-1-yl]methanone trifluoroacetate] — 24-fold higher, 14300 nM
- COc1cccc(S(=O)(=O)N2C[C@@H](C(=O)N3CCN(c4cc(C)ccc4C)CC3)[C@H](c3ccoc3)C2)c1 [Example 114, [4-(2,5-Dimethylphenyl)piperazin-1-yl]-[3,4-trans-4-furan-3-yl-1-(3-methoxybenzenesulfonyl)pyrrolidin-3-yl]methanone trifluoroacetate] — 3.7-fold higher, 2140 nM
- Cc1ccc(C)c(N2CCN(C(=O)[C@@H]3CN(S(=O)(=O)c4c(C)noc4C)C[C@H]3c3ccoc3)CC2)c1 [Example 115, [1-(3,5-Dimethylisoxazole-4-sulfonyl)-3,4-trans-4-furan-3-ylpyrrolidin-3-yl]-[4-(2,5-dimethylphenyl)piperazin-1-yl]methanone trifluoroacetate] — 4.5-fold higher, 2640 nM
- Cc1ccc(C)c(N2CCN(C(=O)[C@@H]3CN(S(=O)(=O)c4cccnc4)C[C@H]3c3ccoc3)CC2)c1 [Example 116, [4-(2,5-Dimethylphenyl)piperazin-1-yl]-[3,4-trans-4-furan-3-yl-1-(pyridine-3-sulfonyl)pyrrolidin-3-yl]methanone trifluoroacetate] — 18-fold higher, 10800 nM
- Cc1ccc(C)c(N2CCN(C(=O)[C@H]3CN(S(=O)(=O)c4c(C)noc4C)C[C@H]3c3ccccc3)CC2)c1 [Example 118, [1-(3,5-Dimethylisoxazole-4-sulfonyl)-3,4-cis-4-phenylpyrrolidin-3-yl]-[4-(2,5-dimethylphenyl)piperazin-1-yl]methanone trifluoroacetate] — 1.7-fold lower, 346 nM
- COc1cccc(S(=O)(=O)N2C[C@H](C(=O)N3CCN(c4cc(C)ccc4C)CC3)[C@H](c3ccccc3)C2)c1 [Example 119, [4-(2,5-Dimethylphenyl)piperazin-1-yl]-[1-(3-methoxybenzenesulfonyl)-3,4-cis-4-phenylpyrrolidin-3-yl]methanone trifluoroacetate] — 3.3-fold lower, 177 nM
- Cc1ccc(C)c(N2CCN(C(=O)[C@H]3CN(S(=O)(=O)c4cccnc4)C[C@H]3c3ccccc3)CC2)c1 [Example 120, [4-(2,5-Dimethylphenyl)piperazin-1-yl]-[3,4-cis-4-phenyl-1-(pyridine-3-sulfonyl)pyrrolidin-3-yl]methanone trifluoroacetate] — within 1.5-fold, 395 nM
